The results in this text go back to patent US12649712B2, “Indene compounds, pharmaceutical compositions thereof, and their therapeutic applications” (NucMito Pharmaceuticals Co. Ltd., priority 2020, dated 2026).

This test relates to alpha-smooth muscle actin (α-SMA). The test can be described thus: Inhibition of TGF-β induced expression of alpha-smooth muscle actin (α-SMA) in CFSC cells, western blot. The settings on record: compound at 10 μM, TGF-β (10 ng/mL), 24 hours, decrease in band intensity vs TGF-β only. In kind it is cell-based. Here is the method:
The ability of a compound to inhibit the TGF-β induced expression of alpha-smooth muscle actin (α-SMA) was evaluated in CCL4-treated fat storing (CFSC) cells. α-SMA is considered as a reliable marker of hepatic stellate cell activation and a key biomarker for liver fibrosis. See, e.g., Meng et al., Nat. Rev. Nephrol. 2016, 12, 325-38; Fabregat et al., FEBS J. 2016, 283, 2219-32.
CFSC cells maintained in a DMEM medium supplemented with 10% fetal bovine serum were seeded to 12-well culture dishes and grown to a confluence of 60-70% the next day. Culture was changed to a serum-free DMEM medium and treated with a compound at 10 μM in the presence of TGF-β (10 ng/mL). The cells were incubated for another 24 hours. All culture was maintained at 37° C. in 5% carbon dioxide.
A NP-40 lysate solution (50 mM Tris (pH 7.4), 150 mM NaCl, 1% NP-40) with EDTA free cocktail added was used to lyse the cells on ice for 30 min. The lysate was collected and centrifuged at 4° C. for 10 min at 12,000 rpm. The pellet was discarded and the supernatant was transferred to a new tube. Cell lysates were loaded with 5×loading buffer and boiled for 10 min, resolved by 10% SDS-polyacrylamide gel electrophoresis (SDS-PAGE), and transferred to PVDF membrane. The membrane was blocked with 5% skim milk in Tris-buffered saline and TWEEN® 20 (TBST; 10 mM Tris-HCl (pH 8.0), 150 mM NaCl, 0.1% TWEEN® 20) for 1 h at room temperature and then incubated with α-SMA and […] antibodies overnight at 4° C. After washing twice with TBST, the membrane was probed with a horseradish […] anti-immunoglobulin (1:5000 dilution) for 1 h at room temperature. After two subsequent rinses in TBST, immunoreactive products were reacted with ECL and visualized by a UVP CHEMSTUDIO™ imaging system. The western blotting bands are quantitated using an ImageJ software. The percentage of inhibition was obtained by calculating the percentage decrease in the band intensity compared to the one treated with TGF-β only.
The results are summarized in Table 1, wherein A represents a value no less of 90% inhibition, B represents a value less than 90% but no less than 80% inhibition, C represents a value less than 80% but no less than 70% inhibition, D represents a value less than 70% but no less than 50% inhibition, and E represents a value less than 50% with a compound at 10 μM.

Turning to `COc1ccc(Oc2cccc(/C=C3/C(C)=C(CC(=O)O)c4cc(F)ccc43)c2)cc1` [Compound D22, 2-[(1Z)-5-Fluoro-2-methyl-1-({3-[4-methoxyphenoxy]phenyl}methylidene)-1H-inden-3-yl]acetic acid], the inhibition at 10 µM is greater than 90%.
The figure for `CC1=C(CC(=O)O)c2cc(F)ccc2/C1=C\c1ccc(Oc2cccc(C)c2)cc1` [Compound A7, 2-[(1Z)-5-Fluoro-2-methyl-1-{[4-(3-methylphenoxy)phenyl]methylidene}-1H-inden-3-yl]acetic acid] is greater than 90%.
The figure for `CC1=C(CCc2nnn[nH]2)c2ccccc2/C1=C\c1ccc(C(C)C)cc1` [Compound B30, (Z)-5-(2-(1-(4-isopropylbenzylidene)-2-methyl-1H-inden-3-yl)ethyl)-1H-tetrazole] is greater than 90%; for `CC1=C(CC(=O)O)c2cc(F)ccc2/C1=C\c1ccc(N(c2ccc(F)cc2)c2ccc(C=O)cc2)cc1` [Compound A35, 2-[(1Z)-5-Fluoro-1-({4-[(4-fluorophenyl)(4-formylphenyl)amino]phenyl}-methylidene)-2-methyl-1H-inden-3-yl]acetic acid] it is greater than 90%; for `CC1=C(CCc2nnn[nH]2)c2ccccc2/C1=C\c1ccc(Oc2cccc(C#N)c2)cc1` [Compound A47, 3-(4-{[(1Z)-2-Methyl-3-[2-(1H-1,2,3,4-tetrazol-5-yl)ethyl]-1H-inden-1-ylidene]methyl}phenoxy)benzonitrile] it is greater than 90%.
Next, `C1=C(Cc2nnn[nH]2)c2ccccc2/C1=C/c1cccc(Oc2ccccc2)c1` [Compound A54, 5-{[(1E)-1-[(3-Phenoxyphenyl)methylidene]-1H-inden-3-yl]methyl}-1H-1,2,3,4-tetrazole]: greater than 90%; `CC1=C(CC(=O)O)c2cc(F)ccc2/C1=C\c1ccc(N(c2ccccc2)c2ccc(C=O)cc2)cc1` [Compound A36, 2-[(1Z)-5-Fluoro-1-({4-[(4-formylphenyl)(phenyl)amino]phenyl}methylidene)-2-methyl-1H-inden-3-yl]acetic acid]: greater than 90%.
As for `CC1=C(CC(=O)NO)c2cc(F)ccc2/C1=C\c1ccc(N(Cc2ccccc2)c2ccc(F)cc2)cc1` [Compound A38, 2-[(1Z)-1-({4-[Benzyl(4-fluorophenyl)amino]phenyl}methylidene)-5-fluoro-2-methyl-1H-inden-3-yl]-N-hydroxyacetamide], the inhibition at 10 µM is 70 to 80%.
Next, `CC1=C(CCc2nnn[nH]2)c2ccccc2/C1=C\c1ccc(Oc2ccc(C(C)C)cc2)cc1` [Compound A43, 5-{2-[(1Z)-2-Methyl-1-({4-[4-(propan-2-yl)phenoxy]phenyl}methylidene)-1H-inden-3-yl]ethyl}-1H-1,2,3,4-tetrazole]: greater than 90%; `CC1=C(CC(=O)O)c2cc(F)ccc2/C1=C/c1ccc(Oc2ccc(F)cc2)cc1` [Compound E2, 2-[(1E)-5-Fluoro-2-methyl-1-({4-[4-fluorophenoxy]phenyl}methylidene)-1H-inden-3-yl]acetic acid]: greater than 90%; `COc1ccc(Oc2ccc(/C=C3/C(C)=C(CC(=O)O)c4cc(F)ccc43)cc2)cc1` [Compound A2, 2-[(1Z)-5-Fluoro-1-{[4-(4-methoxyphenoxy)phenyl]methylidene}-2-methyl-1H-inden-3-yl]acetic acid]: greater than 90%.
`CC1=C(CC(=O)O)c2c(ccc(F)c2F)/C1=C\c1ccc(Oc2ccc(F)cc2)cc1` [Compound A68, 2-[(1Z)-4,5-Difluoro-1-{[4-(4-fluorophenoxy)phenyl]methylidene}-2-methyl-1H-inden-3-yl]acetic acid]: the inhibition at 10 µM was greater than 90%.
In turn, `COc1ccc2c(c1)C(CC(=O)O)=C(C)/C2=C/c1ccc(Oc2ccc(F)cc2)cc1` [Compound D10, 2-[(1Z)-5-Methoxy-2-methyl-1-({4-[4-fluorophenoxy]phenyl}methylidene)-1H-inden-3-yl]acetic acid] showed an inhibition at 10 µM greater than 90%.
Next, `CC1=C(CC(=O)O)c2cc(F)ccc2/C1=C\c1ccc(C(C)(C)C)cc1` [Compound B10, (Z)-2-(5-fluoro-2-methyl-1-(4-t-butylbenzylidene)-1H-inden-3-yl)acetic acid]: 70 to 80%.
Next, `CC1=C(CC(=O)O)c2cc(F)ccc2/C1=C\c1ccc(C)c2ccccc12` [Compound B35, 2-[(1Z)-5-fluoro-2-methyl-1-[(4-methylnaphthalen-1-yl)methylidene]-1H-inden-3-yl]acetic acid]: greater than 90%.
Next, `CC1=C(CC(=O)O)c2cc(F)ccc2/C1=C\c1ccc(Oc2ccc(F)c(F)c2)cc1` [Compound D5, 2-[(1Z)-5-Fluoro-2-methyl-1-({4-[3,4-difluorophenoxy]phenyl}methylidene)-1H-inden-3-yl]acetic acid]: greater than 90%.
Take `CC1=C(CC(=O)O)c2c(F)cc(F)cc2/C1=C\c1ccc(Oc2ccc(F)cc2)cc1` [Compound D16, 2-[(1Z)-4,6-Difluoro-2-methyl-1-({4-[4-fluorophenoxy]phenyl}methylidene)-1H-inden-3-yl]acetic acid]: the inhibition at 10 µM is less than 50%.
Next, `CCN(c1ccc(F)cc1)c1ccc(/C=C2/C(C)=C(CC(=O)O)c3cc(F)ccc32)cc1` [Compound A32, 2-[(1Z)-1-({4-[Ethyl(4-fluorophenyl)amino]phenyl}methylidene)-5-fluoro-2-methyl-1H-inden-3-yl]acetic acid]: greater than 90%.
Next, `C=C(C)c1ccc(/C=C2/C(C)=C(CC(=O)O)c3cc(F)ccc32)cc1` [Compound B39, 2-[(1Z)-5-fluoro-2-methyl-1-{[4-(prop-1-en-2-yl)phenyl]methylidene}-1H-inden-3-yl]acetic acid]: less than 50%.
Next, `CCc1ccc(Oc2ccc(/C=C3/C(C)=C(CC(=O)O)c4cc(F)ccc43)cc2)cc1` [Compound A10, 2-[(1Z)-1-{[4-(4-Ethylphenoxy)phenyl]methylidene}-5-fluoro-2-methyl-1H-inden-3-yl]acetic acid]: greater than 90%; `CC1=C(CC(=O)O)c2cc(F)ccc2/C1=C\c1ccc(N2CCOCC2)cc1` [Compound A55, 2-[(1Z)-5-Fluoro-2-methyl-1-{[4-(morpholin-4-yl)phenyl]methylidene}-1H-inden-3-yl]acetic acid]: less than 50%.
For the compound `COc1ccc2c(c1)C(CC(=O)O)=C(C)/C2=C/c1ccc(Oc2ccccc2)cc1` [Compound D11, 2-[(1Z)-5-Methoxy-2-methyl-1-[(4-phenoxyphenyl)methylidene]-1H-inden-3-yl]acetic acid], the inhibition at 10 µM is greater than 90%.
In turn, `CC1=C(CC(=O)O)c2cc(F)ccc2/C1=C\c1cccc(Oc2ccc(C(F)(F)F)cc2)c1` [Compound D26, 2-[(1Z)-5-Fluoro-2-methyl-1-({3-[4-trifluoromethylphenoxy]phenyl}-methylidene)-1H-inden-3-yl]acetic acid] registered an inhibition at 10 µM greater than 90%.
The figure for `CC1=C(CCC(=O)O)c2ccccc2/C1=C\c1ccc(Oc2ccc(F)cc2)cc1` [Compound A19, 3-[(1Z)-1-{[4-(4-Fluorophenoxy)phenyl]methylidene}-2-methyl-1H-inden-3-yl]propanoic acid] is greater than 90%.
Next, `COc1ccc(Oc2ccc(/C=C3/C(C)=C(CC(=O)O)c4cc(F)ccc43)c(Cl)c2)cc1` [Compound A12, 2-[(1Z)-1-{[2-Chloro-4-(4-methoxyphenoxy)phenyl]methylidene}-5-fluoro-2-methyl-1H-inden-3-yl]acetic acid]: greater than 90%.
As for `CC1=C(CC(=O)NO)c2cc(F)ccc2/C1=C\c1ccc(N(CCO)c2ccc(F)cc2)cc1` [Compound A85, 2-[(1Z)-5-Fluoro-1-({4-[(4-fluorophenyl)(2-hydroxyethyl)amino]phenyl}-methylidene)-2-methyl-1H-inden-3-yl]-N-hydroxyacetamide], the inhibition at 10 µM was greater than 90%.
Next, `CC1=C(CC(=O)O)c2cc(F)ccc2/C1=C\c1cccc(Oc2ccccc2)c1` [Compound D18, (Z)-2-(5-Fluoro-2-methyl-1-(3-phenoxybenzylidene)-1H-inden-3-yl)acetic acid]: greater than 90%; `CC1=C(CC(=O)O)c2cc(F)ccc2/C1=C/c1ccc(Oc2ccc(F)c(F)c2)cc1` [Compound E1, 2-[(1E)-5-Fluoro-2-methyl-1-({4-[3,4-difluorophenoxy]phenyl}methylidene)-1H-inden-3-yl]acetic acid]: greater than 90%.
